The values that follow come from PMC7467159, “Anaerobic fixed-target serial crystallography” (IUCrJ, 2020).

The target in test [1] is T1, VioC (Streptomyces vinaceus, UniProt Q6WZB0).
T1 construct: codon-optimized, pNIC28-Bsa4, E. coli T7 LysY; His-tag cleaved with TEV protease; SEC purified; Fe(II) enzyme, microcrystals
In words: room-temperature serial crystallography. It counts as binding. Particulars: Fe(II).

Test [2] addresses T2, IPNS (Aspergillus nidulans, UniProt P05326).
T2 construct: gene ipnA; recombinant, purified as in Roach et al; Fe(II) enzyme, microcrystals
T2 sequence (P05326 1-331): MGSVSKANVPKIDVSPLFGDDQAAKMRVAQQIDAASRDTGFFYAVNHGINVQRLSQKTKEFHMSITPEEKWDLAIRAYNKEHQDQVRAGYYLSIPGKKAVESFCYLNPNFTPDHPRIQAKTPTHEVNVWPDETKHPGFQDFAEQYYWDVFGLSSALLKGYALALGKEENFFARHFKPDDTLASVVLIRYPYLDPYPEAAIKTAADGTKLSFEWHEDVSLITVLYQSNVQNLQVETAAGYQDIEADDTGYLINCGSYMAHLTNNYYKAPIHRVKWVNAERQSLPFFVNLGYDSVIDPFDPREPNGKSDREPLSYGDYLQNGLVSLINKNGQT
The test is described as follows: room-temperature serial crystallography. The format is binding. Particulars: anaerobic, Fe(II); cysteinyl sulfur ligates Fe.

T1 sequence (Q6WZB0 whole entry): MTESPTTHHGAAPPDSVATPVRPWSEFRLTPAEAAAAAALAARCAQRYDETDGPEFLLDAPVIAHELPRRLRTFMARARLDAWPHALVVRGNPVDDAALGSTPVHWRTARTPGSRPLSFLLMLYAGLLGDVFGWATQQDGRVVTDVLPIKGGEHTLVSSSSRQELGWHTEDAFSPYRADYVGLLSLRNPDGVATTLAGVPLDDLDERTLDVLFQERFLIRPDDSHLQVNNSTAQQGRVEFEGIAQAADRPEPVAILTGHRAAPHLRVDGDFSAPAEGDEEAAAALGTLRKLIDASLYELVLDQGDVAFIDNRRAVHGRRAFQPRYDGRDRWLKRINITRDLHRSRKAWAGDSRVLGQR

Consider `O=C(O)CCC(=O)C(=O)O` [2OG], for which, in test [1] (anaerobic, L-arginine, bidentate to Fe), the room-temperature serial crystallography result is on record as “the 2OG ligates the Fe in a bidentate manner via its oxalyl group”.
Consider `N=C(N)NCC[C@H](O)[C@H](N)C(=O)O` [(3S)-OH-Arg], for which the room-temperature serial crystallography entry in test [1] (formed in crystallo after 1 h air exposure, succinate, active site) was “the (3S)-OH-Arg is positioned to coordinate Fe via its (3S)-hydroxyl group”.
Regarding `CC(C)[C@@H](NC(=O)[C@H](CS)NC(=O)CCC[C@H](N)C(=O)O)C(=O)O` [ACV], the room-temperature serial crystallography result in test [2] was “completed by a water molecule and the cysteinyl sulfur of the substrate ACV”.
As to `N=C(N)NCCC[C@H](N)C(=O)O` [L-arginine], in test [1] (anaerobic, 2OG, active site), the room-temperature serial crystallography result was “VioC:Fe:2OG:Arg substrate complex structure reported in this study (PDB entry 6y0n)”.
Turning to `O=C(O)CCC(=O)O` [succinate], the room-temperature serial crystallography result in test [1] (formed in crystallo after 1 h air exposure, (3S)-OH-Arg, monodentate to Fe) was “succinate is bound in a monodentate manner, also trans to His168”.
